Reference: the supplement of paper PMC10307832

Tests used:
Assay in all cases: relative viability (nuclei count vs DMSO), 5 days (fraction); higher = more cells survive
[1] = test system: NCI-H1915
Outline: (§1)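 Lung cancer cell lines in 1536-well plates got either a single drug or a fixed anchor-drug dose together with five library-drug doses (not always all listed) in √10 steps, by pin tool, on the day after seeding. Nuclei were counted after 5 days, and relative viability is the treated-to-vehicle ratio of nuclei counts. Values are medians of duplicate plates.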

[2] = test system: UMC-11
Outline: as §1

[3] = test system: SK-LU-1
Outline: as §1

[4] = test system: HOP-62
Outline: as §1

[5] = test system: NCI-H2009
Outline: as §1

[6] = test system: NCI-H2085
Outline: as §1

[7] = test system: NCI-H1944
Outline: as §1

[8] = test system: LXF-289
Outline: as §1

[9] = test system: NCI-H1793
Outline: as §1

[10] = test system: LU99A
Outline: as §1

[11] = test system: HCC-366
Outline: as §1

Which relative viability ([1]; first compound 0.0002 µM) does the source give for `CC(=O)O[C@@]12CO[C@@H]1C[C@H](O)[C@@]1(C)C(=O)[C@H](O)C3=C(C)[C@@H](OC(=O)[C@H](O)[C@@H](NC(=O)OC(C)(C)C)c4ccccc4)C[C@@](O)([C@@H](OC(=O)c4ccccc4)[C@H]21)C3(C)C` [Docetaxel] + O=C(c1cc(Cc2n[nH]c(=O)c3ccccc23)ccc1F)N1CCN(C(=O)C2CC2)CC1 [Olaparib] (partner 8 µM) here?
The relative viability was 0.278.

What about the relative viability ([1]; first compound 0.000632 µM) of the same compound?
The relative viability was 0.256.

What about the relative viability ([1]; first compound 0.002 µM) of the same compound?
The relative viability was 0.179.

And the relative viability ([1]; first compound 0.006325 µM)?
The relative viability was 0.144.

What about the relative viability ([1]; first compound 0.02 µM) of the same compound?
Its relative viability is 0.0963.

What about the relative viability ([2]; first compound 0.0002 µM) of the same compound?
The relative viability was 0.371.

And the relative viability ([2]; first compound 0.000632 µM)?
The relative viability was 0.352.

What about the relative viability ([2]; first compound 0.002 µM) of the same compound?
Its relative viability is 0.221.

What about the relative viability ([2]; first compound 0.006325 µM) of the same compound?
Its relative viability is 0.289.

And the relative viability ([2]; first compound 0.02 µM)?
The relative viability was 0.229.

And the relative viability ([3]; first compound 0.0002 µM)?
The relative viability was 0.479.

And the relative viability ([3]; first compound 0.000632 µM)?
Its relative viability is 0.349.

What about the relative viability ([3]; first compound 0.002 µM) of the same compound?
The relative viability was 0.315.

And the relative viability ([3]; first compound 0.006325 µM)?
The relative viability was 0.256.

What about the relative viability ([3]; first compound 0.02 µM) of the same compound?
The relative viability was 0.167.

What about the relative viability ([4]; first compound 0.0002 µM) of the same compound?
The relative viability was 0.336.

And the relative viability ([4]; first compound 0.000632 µM)?
Its relative viability is 0.317.

And the relative viability ([4]; first compound 0.002 µM)?
The relative viability was 0.129.

What about the relative viability ([4]; first compound 0.02 µM) of the same compound?
Its relative viability is 0.12.

And the relative viability ([5]; first compound 0.0002 µM)?
Its relative viability is 0.606.

And the relative viability ([5]; first compound 0.000632 µM)?
Its relative viability is 0.79.

And the relative viability ([5]; first compound 0.002 µM)?
Its relative viability is 0.562.

What about the relative viability ([5]; first compound 0.006325 µM) of the same compound?
The relative viability was 0.397.

What about the relative viability ([5]; first compound 0.02 µM) of the same compound?
Its relative viability is 0.149.

What about the relative viability ([6]; first compound 0.0002 µM) of the same compound?
Its relative viability is 0.725.

What about the relative viability ([6]; first compound 0.000632 µM) of the same compound?
Its relative viability is 0.826.

What about the relative viability ([6]; first compound 0.002 µM) of the same compound?
The relative viability was 0.747.

And the relative viability ([6]; first compound 0.006325 µM)?
Its relative viability is 0.431.

And the relative viability ([6]; first compound 0.02 µM)?
Its relative viability is 0.298.

What about the relative viability ([7]; first compound 0.0002 µM) of the same compound?
Its relative viability is 0.439.

What about the relative viability ([7]; first compound 0.000632 µM) of the same compound?
The relative viability was 0.396.

And the relative viability ([7]; first compound 0.002 µM)?
The relative viability was 0.339.

What about the relative viability ([7]; first compound 0.006325 µM) of the same compound?
Its relative viability is 0.238.

What about the relative viability ([7]; first compound 0.02 µM) of the same compound?
Its relative viability is 0.118.

What about the relative viability ([8]; first compound 0.0002 µM) of the same compound?
The relative viability was 1.06.

What about the relative viability ([8]; first compound 0.000632 µM) of the same compound?
The relative viability was 0.393.

What about the relative viability ([8]; first compound 0.002 µM) of the same compound?
Its relative viability is 0.195.

And the relative viability ([8]; first compound 0.006325 µM)?
Its relative viability is 0.111.

What about the relative viability ([8]; first compound 0.02 µM) of the same compound?
Its relative viability is 0.0839.

What about the relative viability ([9]; first compound 0.0002 µM) of the same compound?
Its relative viability is 0.8.

And the relative viability ([9]; first compound 0.000632 µM)?
The relative viability was 0.517.

And the relative viability ([9]; first compound 0.002 µM)?
The relative viability was 0.287.

And the relative viability ([9]; first compound 0.006325 µM)?
Its relative viability is 0.293.

And the relative viability ([10]; first compound 0.0002 µM)?
Its relative viability is 0.259.

And the relative viability ([10]; first compound 0.000632 µM)?
The relative viability was 0.201.

And the relative viability ([10]; first compound 0.002 µM)?
The relative viability was 0.209.

What about the relative viability ([10]; first compound 0.006325 µM) of the same compound?
Its relative viability is 0.23.

And the relative viability ([10]; first compound 0.02 µM)?
The relative viability was 0.163.

What about the relative viability ([11]; first compound 0.0002 µM) of the same compound?
The relative viability was 0.245.

What about the relative viability ([11]; first compound 0.000632 µM) of the same compound?
The relative viability was 0.115.

What about the relative viability ([11]; first compound 0.002 µM) of the same compound?
The relative viability was 0.0486.

And the relative viability ([11]; first compound 0.006325 µM)?
The relative viability was 0.0381.

What about the relative viability ([11]; first compound 0.02 µM) of the same compound?
The relative viability was 0.0133.
